These results are taken from PubChem BioAssay AID330 (DTP/NCI, 2004).

Where “and” joins values, the source holds several entries; their conditions need not be identical. Equal entries are not always repeated. Inconclusive results and toxic doses are left out.

In this experiment the test system is P388 leukemia ip, CD2F1 mice, survival T/C. The experiment is described as follows: NCI In Vivo Anticancer Drug Screen. Data for tumor model P388 Leukemia (intraperitoneal) in CD2F1 (CDF1) mice. The note with it: endpoint: median survival time, higher = longer survival. A digest of the protocol:
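Mice carrying the transplanted tumor received test compound or vehicle. Survival was recorded in each group, and the value is the treated-group measurement divided by that of the vehicle-treated control group.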

Setting [1] is: dose: 50.0 mg/kg/injection, schedule: Q01DX009 (ip), vehicle: saline with Tween-80.
[2] abbreviates: dose: 100.0 mg/kg/injection, schedule: Q01DX009 (ip), vehicle: saline with Tween-80.
[3] abbreviates: dose: 200.0 mg/kg/injection, schedule: Q01DX009 (ip), vehicle: saline with Tween-80.
The mark [4] stands for this setting: dose: 12.5 mg/kg/injection, schedule: Q01DX005 (ip), vehicle: saline with Tween-80.
[5] abbreviates: dose: 6.25 mg/kg/injection, schedule: Q01DX009 (ip), vehicle: saline with Tween-80.
Where [6] appears, read: dose: 400.0 mg/kg/injection, schedule: Q01DX009 (ip), vehicle: saline with Tween-80.
The mark [7] stands for this setting: dose: 25.0 mg/kg/injection, schedule: Q01DX009 (ip), vehicle: saline with Tween-80.
The mark [8] stands for this setting: dose: 50.0 mg/kg/injection, schedule: Q01DX005 (ip), vehicle: Klucel (hydroxypropylcellulose) (HPC).
Setting [9] is: dose: 100.0 mg/kg/injection, schedule: Q01DX005 (ip), vehicle: Klucel (hydroxypropylcellulose) (HPC).
Where [10] appears, read: dose: 200.0 mg/kg/injection, schedule: Q01DX005 (ip), vehicle: Klucel (hydroxypropylcellulose) (HPC).
The mark [11] stands for this setting: dose: 50.0 mg/kg/injection, schedule: Q01DX005 (ip), vehicle: saline with Tween-80.

As to `OC1(c2cccnc2)C=CCC1` (stereo not drawn), the T/C was 100 % of control under setting [1], 102 % of control under setting [2] and 100 % of control under setting [3].
Regarding `N#CN=[N+]([O-])c1ccccc1Br`, the T/C reads like this: (dose: 3.12 mg/kg/injection, schedule: Q01DX009 (ip), vehicle: Klucel (hydroxypropylcellulose) (HPC)) 98 % of control; (dose: 6.25 mg/kg/injection, schedule: Q01DX009 (ip), vehicle: Klucel (hydroxypropylcellulose) (HPC)) 100 % of control; (dose: 6.25 mg/kg/injection, schedule: Q04DX003 (ip), vehicle: Klucel (hydroxypropylcellulose) (HPC)) 100 % of control; (dose: 12.5 mg/kg/injection, schedule: Q01DX009 (ip), vehicle: Klucel (hydroxypropylcellulose) (HPC)) 114 % of control; (dose: 12.5 mg/kg/injection, schedule: Q04DX003 (ip), vehicle: Klucel (hydroxypropylcellulose) (HPC)) 91 % of control; (dose: 25.0 mg/kg/injection, schedule: Q04DX003 (ip), vehicle: Klucel (hydroxypropylcellulose) (HPC)) 87 % of control.
For `C[C@@H]1C[C@@H]2c3cccc4[nH]cc(c34)C[C@H]2N(C)C1`, the T/C is 98 % of control (dose: 3.12 mg/kg/injection, schedule: Q01DX005 (ip), vehicle: saline with Tween-80); 98 % of control (dose: 6.25 mg/kg/injection, schedule: Q01DX005 (ip), vehicle: saline with Tween-80); 100 % of control under setting [4].
In the case of `CCCCCCCC(=O)O[C@H]1[C@H]2[C@@H](CC1(C)C)C(=O)[C@]13O[C@H]1C(=O)[C@]1(CO1)[C@]23C`, the T/C by setting is: (dose: 2.2 mg/kg/injection, schedule: Q01DX009 (ip), vehicle: saline with Tween-80) 118 % of control; (dose: 5.0 mg/kg/injection, schedule: Q01DX009 (ip), vehicle: saline with Tween-80) 104 % of control and 122 % of control; (dose: 7.5 mg/kg/injection, schedule: Q01DX009 (ip), vehicle: saline with Tween-80) 118 % of control; (dose: 10.0 mg/kg/injection, schedule: Q01DX009 (ip), vehicle: saline with Tween-80) 95 % of control; (dose: 10.0 mg/kg/injection, schedule: Q01DX009 (ip), vehicle: saline) 105 % of control.
On to `O=C(O)C(c1ccccc1)C1CCCC1` (stereo not drawn), for which the T/C is 110 % of control (dose: 50.0 mg/kg/injection, schedule: Q04DX003 (ip), vehicle: saline with Tween-80); 110 % of control (dose: 100.0 mg/kg/injection, schedule: Q04DX003 (ip), vehicle: saline with Tween-80); 105 % of control (dose: 200.0 mg/kg/injection, schedule: Q04DX003 (ip), vehicle: saline with Tween-80).
In the case of `COc1nc(=O)n(C2C=CC(=O)O2)cc1F` (stereo not drawn), the T/C was 158 % of control and 173 % of control (dose: 20.0 mg/kg/injection, schedule: Q01DX009 (ip), vehicle: saline); 174 % of control and 196 % of control (dose: 40.0 mg/kg/injection, schedule: Q01DX009 (ip), vehicle: saline); 102 % of control (dose: 80.0 mg/kg/injection, schedule: Q01DX009 (ip), vehicle: saline).
Consider `O=C1C(Br)=C(Br)C(=O)C1(Br)Br`, for which the T/C under setting [5] is 118 % of control; the T/C (dose: 6.25 mg/kg/injection, schedule: Q04DX003 (ip), vehicle: saline with Tween-80) was 100 % of control; the T/C (dose: 12.5 mg/kg/injection, schedule: Q04DX003 (ip), vehicle: saline with Tween-80) is 100 % of control; the T/C (dose: 25.0 mg/kg/injection, schedule: Q04DX003 (ip), vehicle: saline with Tween-80) is 120 % of control.
Turning to `O=Cc1ccc2c(c1)OCCOCCOCCOCCO2`, the T/C (dose: 25.0 mg/kg/injection, schedule: Q01DX009 (ip), vehicle: saline) is 100 % of control and 97 % of control; the T/C (dose: 50.0 mg/kg/injection, schedule: Q01DX009 (ip), vehicle: saline) is 99 % of control and 111 % of control; the T/C (dose: 100.0 mg/kg/injection, schedule: Q01DX009 (ip), vehicle: saline) is 105 % of control and 94 % of control; the T/C (dose: 200.0 mg/kg/injection, schedule: Q01DX009 (ip), vehicle: saline) was 102 % of control and 92 % of control.
On to `CC(/C=C/c1ccccc1)=N\Nc1ccccc1`, for which the T/C reads like this: under setting [1], 118 % of control; under setting [2], 110 % of control and 112 % of control; (dose: 132.0 mg/kg/injection, schedule: Q01DX009 (ip), vehicle: saline with Tween-80) 100 % of control; under setting [3], 100 % of control and 110 % of control and 121 % of control; (dose: 300.0 mg/kg/injection, schedule: Q01DX009 (ip), vehicle: saline with Tween-80) 107 % of control; under setting [6], 106 % of control.
As for `COc1ccc(/C=C2\CCOc3ccc(C)cc3C2=O)cc1`, the T/C reads like this: (dose: 100.0 mg/kg/injection, schedule: Q04DX003 (ip), vehicle: Klucel (hydroxypropylcellulose) (HPC)) 94 % of control; (dose: 200.0 mg/kg/injection, schedule: Q04DX003 (ip), vehicle: Klucel (hydroxypropylcellulose) (HPC)) 96 % of control; (dose: 400.0 mg/kg/injection, schedule: Q04DX003 (ip), vehicle: Klucel (hydroxypropylcellulose) (HPC)) 102 % of control.
`O=C1CCS(=O)(=O)CC1`: the T/C by setting is: under setting [7], 108 % of control; under setting [1], 103 % of control and 107 % of control; under setting [2], 114 % of control and 120 % of control; under setting [3], 107 % of control and 123 % of control; under setting [6], 113 % of control and 120 % of control; (dose: 600.0 mg/kg/injection, schedule: Q01DX009 (ip), vehicle: saline with Tween-80) 123 % of control.
Take `C=CCOP1(c2ccccc2)(c2ccccc2)NC(c2ccccc2)(c2ccccc2)C(C(=O)OC)=C1C(=O)OC`: the T/C is 90 % of control under setting [8], 91 % of control under setting [9] and 92 % of control under setting [10].
Turning to `CC(C)CCc1cc(O)c(CCC(C)C)cc1O`, the T/C was 88 % of control under setting [5], 109 % of control under setting [7], 108 % of control under setting [1] and 114 % of control under setting [2].
`CCOC(=O)c1nc(Cl)cn(O)c1=N`: the T/C under setting [2] is 104 % of control, the T/C under setting [3] is 99 % of control and the T/C under setting [6] was 93 % of control.
`C[C@]12CC[C@H]3[C@@H](CC[C@]4(O)C[C@@H](O)CC[C@]34CO)[C@@]1(O)CC[C@@H]2C1=CC(=O)OC1`: the T/C was 97 % of control (dose: 25.0 mg/kg/injection, schedule: Q04DX003 (ip), vehicle: suspension in saline); 98 % of control (dose: 50.0 mg/kg/injection, schedule: Q04DX003 (ip), vehicle: suspension in saline); 97 % of control (dose: 100.0 mg/kg/injection, schedule: Q04DX003 (ip), vehicle: suspension in saline); 100 % of control (dose: 200.0 mg/kg/injection, schedule: Q04DX003 (ip), vehicle: suspension in saline).
Take `CC(C)CNC(=O)C(=O)NCC(C)C`: the T/C reads like this: (dose: 25.0 mg/kg/injection, schedule: Q01DX001 (ip), vehicle: Klucel (hydroxypropylcellulose) (HPC)) 98 % of control; (dose: 50.0 mg/kg/injection, schedule: Q01DX001 (ip), vehicle: Klucel (hydroxypropylcellulose) (HPC)) 101 % of control; (dose: 100.0 mg/kg/injection, schedule: Q01DX001 (ip), vehicle: Klucel (hydroxypropylcellulose) (HPC)) 101 % of control.
For `CCC(c1ccc(O)cc1)c1cc2c(cc1OCCO)OCO2` (stereo not drawn), the T/C is 95 % of control under setting [11]; 98 % of control (dose: 100.0 mg/kg/injection, schedule: Q01DX005 (ip), vehicle: saline with Tween-80); 95 % of control (dose: 200.0 mg/kg/injection, schedule: Q01DX005 (ip), vehicle: saline with Tween-80).
On to `COc1cc(NCCCCCNC(C)(C)C)c2ncccc2c1`, for which the T/C is, setting by setting: under setting [4], 98 % of control; (dose: 25.0 mg/kg/injection, schedule: Q01DX005 (ip), vehicle: saline with Tween-80) 98 % of control; under setting [11], 100 % of control and 103 % of control.
`CCCCOc1ccc(C(C)c2cc3c(cc2OCC)OCO3)cc1` (stereo not drawn): the T/C (dose: 25.0 mg/kg/injection, schedule: Q01DX005 (ip), vehicle: Klucel (hydroxypropylcellulose) (HPC)) was 103 % of control; the T/C under setting [8] was 103 % of control; the T/C under setting [9] is 100 % of control; the T/C under setting [10] was 104 % of control.
For the compound `ClC(Cl)(Cl)Sn1cccn1`, the T/C runs as follows: under setting [1], 104 % of control; under setting [2], 97 % of control.
As to `COc1ccccc1C(=O)Nc1c(C)cccc1Cl`, the T/C runs as follows: (dose: 60.0 mg/kg/injection, schedule: Q01DX005 (ip), vehicle: saline with Tween-80) 100 % of control; (dose: 120.0 mg/kg/injection, schedule: Q01DX005 (ip), vehicle: saline with Tween-80) 103 % of control; (dose: 240.0 mg/kg/injection, schedule: Q01DX005 (ip), vehicle: saline with Tween-80) 94 % of control.
